Values of other authors, collected in US20100028296A1, “Use of cytokine-derived peptides in treatment of pain and neurodegenerative disease” (priority 2005, published 2010).
Where no end group is shown, it is not given here.

Key:
[1] = system: chronic constriction injury model of neuropathic pain; details: in vivo
[2] = system: dynorphin-induced, IL-1β-mediated mechanical allodynia; details: intrathecal; administered 30 minutes or 6 hours after induction of allodynia
[3] = native dimer, approximately 37 kDa
[4] = system: excitotoxic spinal cord injury; details: given 30 minutes following injury
[5] = system: immunomodulatory functions known for human IL-10; details: at generally different dosage levels

Molecule: O=C1CCC(N2C(=O)c3ccccc3C2=O)C(=O)N1 (stereo not drawn) [thalidomide]
- mechanical allodynia [1]: reduces
- thermal hyperalgesia [1]: reduces

Molecule: IL-10: anti-inflammatory cytokine, dimer of approximately 37 kDa in its native state
- onset of mechanical allodynia [2]: blocks the onset
- crossing of the intact blood brain barrier [3]: does not cross the intact blood brain barrier in appreciable amounts
- pathological pain behaviors [4]: decreased pathological pain behaviors

Molecule: AYMTMKIRN [IT, C-terminal nonapeptide from human IL-10 protein]
- functional activities compared with intact IL-10 [5]: shares some, but not all, of the functional activities of intact IL-10
